US7619005B2, “Methods for treating cognitive impairment in humans with Multiple Sclerosis” (Cognition Pharmaceuticals LLC, priority 2000, dated 2009)
Where “and” joins values, the source holds several entries; their conditions need not be identical. Equal values may be shown once.

Assays:
[1] = system: Long-Evans rats; assay: Passive Avoidance test, injection immediately after training; details: i.p. immediately after training; p values=0.007 (C105), 0.0004 (d-amphetamine), 0.03 (SN522)
[2] = system: scopolamine treated rats; assay: Passive Avoidance in scopolamine treated rats (memory impairment); type: in vivo, rat
[3] = system: rats; assay: Inhibitory Avoidance task, normal rats
Procedure: The paradigms consists of one training trial and one retention trial. Test substances may be administered to the rats either before or after training. Improved memory, as a result of test substance administration, is evident on the retention trial.
(§1) Two seconds after entering the dark chamber, a continuous 0.46 mA foot-shock was delivered through the floor grid for two seconds. The animal was then removed from the apparatus and returned to the home cage. The animals received a retention test 24 hours following training. The retention test was identical to training except that no foot-shock was delivered. […] Data was collected by the Graphic State™ Notation software, and was recorded onto an appropriate data sheet.

[4] = system: rats; assay: Spontaneous Object Recognition task, normal rats; details: 0.5 mg/kg immediately following training
Description: Apparatus for Object Recognition testing consisted of a plexiglass open field activity chamber, measuring 30 by 30 cm. A video camera was mounted on the wall above the chamber. Three plastic objects served as stimuli for the experiment. Two of the objects were identical to one another, and the third was different. Rats were individually habituated to the open-field box for three consecutive days. Habituation sessions were six minutes in duration. Twenty-four hours after the last day of habituation, a training session was conducted, in which two identical objects were placed in the open-field box, 10 cm from the back wall. The animal was placed into the box and was allowed to explore freely for a period of four minutes. Twenty-four hours after the training session, retention testing was conducted. During retention testing, the rat was placed back into the same activity box with one of the familiar objects used during the training session and a novel object that the rat had not seen before. The rat was allowed to explore the box and objects for a period of four minutes. Testing was conducted at the same time each day, and was videotaped for off-line analysis. Two discrimination indices, D1 and D2 were calculated in order to measure the strength of recognition memory. […]

[5] = system: healthy adult male and female subjects; assay: Phase 1 studies of C105: safety and tolerability; type: in vivo, human
Description: Safety and tolerability assessments were changes in vital signs, ECGs, Holter monitoring, laboratory tests, physical examination and adverse events.

[6] = system: rats; assay: Tail-Flick Analgesia Testing (C105); type: in vivo, rat; design: Tail-Flick Analgesia (latency to flick tail): unit not given here; details: for Tail-Flick Analgesia (latency to flick tail): each animal
Procedure: For Tail-Flick Analgesia Testing, the animal was placed on top of the Tail-Flick monitor and gently held in place with a cotton towel. The tail of the animal was placed in a shallow groove lying between two sensors and over the top of a radiant heat wire. The Tail Flick monitor was activated, and the latency for the animal to flick its tail out of the groove and away from the heat source was recorded. The animal was returned to its home cage immediately following testing.

[7] = system: rats with bilateral lesions of the fornix; assay: Inhibitory Avoidance task, fornix lesion rats; details: for latency to enter the dark side of the apparatus: Fornix lesion rats, each animal
Procedure: as §1

[8] = system: Long-Evans rats; assay: Locomotor activity, activity monitoring chambers; type: in vivo, rat; details: higher doses (0.5, 2.5, 5.0 mg/kg ip) (FIG. 24)
Procedure: Activity monitoring was conducted in a Plexiglas open-field box measuring 30 by 30 cm. […] The location of the animal within the cage was detected by breaks in the infrared light beams. Light beams status information was collected and rapidly analyzed by a computerized activity monitoring system (VersaMax System, Accuscan Instruments.)
In order to determine whether SN522 had any adverse effects on locomotor or exploratory activity, rats were injected with saline or 0.25, 0.5, 2.5 and 5.0 mg/kg of SN522 and immediately afterwards placed into the activity monitoring chambers for a period of three hours.

[9] = system: rats; assay: Activity monitoring, open-field box, 10 minutes; details: 2 mg/kg; entire 10 minute session (FIG. 7)
Procedure: Activity monitoring was conducted in a Plexiblas open-field box. Activity levels were measured by a grid of infrared light beams that traversed the cage from left to right and back to front. The location of the animal was detected by breaks in the infrared light beams. General behavior and activity levels were recorded by a computerized monitoring system for a period of ten minutes. The analyzed behaviors included but were not limited to; horizontal activity, total distance moved, movement time, number of movements, number of rears, number of stereotyped movements, and time spent resting. Data was collected on-line using Versa Max (Version 1.83) computer software and a Hewlett Packard Pavilion computer.

(−)-1-methyl-2-phenylethylamine sulfate (2:1) [C105]
dose that significantly improved performance on the passive avoidance task [1]: 0.5 mg/kg
performance vs animals treated with scopolamine and saline ([2]; 1.0 mg/kg of C105, printed p>0.05): performed significantly better than animals treated with scopolamine and saline
alleviation of scopolamine impairment (step-through latency) ([2]; C105 i.p. immediately after training, log rank p=0.02 (FIG. 33)): effective at alleviating the impairment in the scopolamine-injected animals
latency to enter the dark side of the apparatus ([3]; 0.4 mg/kg one hour prior to training, each animal, rank-ordered): 231.0 s and 236.0 s and 250.0 s and 265.0 s and 629.0 s and 45.0 s and 62.0 s and 80.0 s and 87.0 s and 170.0 s
Inhibitory Avoidance performance, post training administration ([3]; 0.5 mg/kg immediately after training (FIG. 11), p<0.0402): significantly enhanced performance on the Inhibitory Avoidance task
latency to enter the dark side of the apparatus ([3]; 1.0 mg/kg one hour prior to training, each animal, rank-ordered): 343.0 s and 729.0 s and 813.0 s and 824.0 s and 900.0 s and 101.0 s and 115.0 s and 121.0 s and 202.0 s and 265.0 s
Inhibitory Avoidance performance vs saline controls ([3]; 1.0 mg/kg one hour prior to training, post hoc p<0.05): performed significantly better than saline injected controls
latency to enter the dark side of the apparatus ([3]; 2.0 mg/kg one hour prior to training, each animal, rank-ordered): 230.0 seconds and 231.0 seconds and 253.0 seconds and 366.0 seconds and 384.0 seconds and 30.0 seconds and 59.0 seconds (2×) and 127.0 seconds and 137.0 seconds
latency to enter the dark side of the apparatus ([3]; Control rats, 0.5 mg/kg, each animal (Table 7)): 214.0 s and 240.0 s and 252.0 s and 271.0 s and 284.0 s
latency to enter the dark side of the apparatus ([3]; Control rats, 1.0 mg/kg, each animal (Table 7)): 106.0 s and 195.0 s and 197.0 s and 213.0 s and 238.0 s
latency to enter the dark side of the apparatus ([3]; Control rats, 2.0 mg/kg, each animal (Table 7)): 86.0 s and 92.0 s and 106.0 s and 160.0 s and 192.0 s
latency to enter the dark side of the apparatus ([3]; Control rats, 4.0 mg/kg, each animal (Table 7)): 83.0 seconds (2×) and 86.0 seconds and 98.0 seconds and 193.0 seconds
mnemonic performance, Inhibitory Avoidance ([3]; doses lower than 0.5 mg/kg (0.1, […]) one hour prior to training): not effective in improving the mnemonic performance
latency to enter the dark side of the apparatus ([3]; low doses: 0.1 mg/kg one hour prior to training, each animal, 0.1 mg/kg): 55.0 seconds (2×) and 110.0 seconds and 113.0 seconds and 124.0 seconds and 366.0 seconds and 37.0 seconds (2×) and 39.0 seconds (2×)
discrimination indices D1 and D2 vs saline ([4]; p<0.0147 and p<0.0024): significantly higher
recognition memory ([4]; retention 24 h): significantly improved recognition memory
serious adverse events ([5]; single oral doses 5 to 45 mg): no reported serious adverse events
most frequently reported adverse events ([5]; single oral doses 5 to 45 mg, generally mild): dizziness, headache, insomnia, sinus tachycardia, supraventricular tachycardia and aptyalism
tolerability ([5]; single oral doses ranging from 5 to 45 mg): well tolerated
Tail-Flick Analgesia (latency to flick tail) ([6]; 1.0 mg/kg one hour prior to testing): 4.60 and 5.09 and 6.01 and 1.13 and 2.28 and 3.26 and 3.30 and 4.59
Tail-Flick Analgesia (latency to flick tail) ([6]; 2.0 mg/kg one hour prior to testing): 3.89 and 3.96 and 4.45 and 2.46 and 2.68 and 2.79 and 3.05 and 3.56
Tail-Flick Analgesia (latency to flick tail) ([6]; 4.0 mg/kg one hour prior to testing): 6.66 and 16.44 and 20.00 and 2.22 and 3.13 and 5.43 and 6.26 and 6.42
Tail-Flick Analgesia (latency to flick tail) ([6]; 8.0 mg/kg one hour prior to testing): 6.54 and 7.39 and 14.43 and 3.13 and 4.67 and 4.72 and 5.22
analgesic properties ([6]; 1.0 and 2.0 mg/kg one hour prior to testing): had no analgesic properties
analgesic properties ([6]; 4.0 and 8.0 mg/kg one hour prior to testing, statistical significance at 4.0 mg/kg (p<0.0117)): did
dose most effective in improving the performance of the fornix lesion animals ([7]; 0.5, 1.0, 2.0 and 4.0 mg/kg tested, one hour prior to testing (FIG. 12)): 1.0 mg/kg
latency to enter the dark side of the apparatus ([7]; 0.5 mg/kg): 21.0 seconds (2×) and 32.0 seconds and 55.0 seconds and 65.0 seconds and 72.0 seconds and 209.0 seconds and 4.0 seconds and 7.0 seconds and 13.0 seconds
latency to enter the dark side of the apparatus ([7]; 1.0 mg/kg): 19.0 seconds (2×) and 166.0 seconds and 221.0 seconds and 246.0 seconds and 274.0 seconds and 314.0 seconds and 4.0 seconds and 7.0 seconds
latency to enter the dark side of the apparatus ([7]; 2.0 mg/kg): 28.0 s and 30.0 s and 40.0 s and 70.0 s and 84.0 s and 153.0 s and 4.0 s and 17.0 s and 18.0 s and 26.0 s
latency to enter the dark side of the apparatus ([7]; 4.0 mg/kg): 25.0 s and 28.0 s and 42.0 s and 96.0 s and 140.0 s and 159.0 s and 2.0 s and 8.0 s and 13.0 s and 21.0 s

C[C@H](N)Cc1ccccc1 [(S)-(+)-amphetamine, reference compound]
effects on activity [8]: profound increases in activity
dose that significantly improved performance on the passive avoidance task [1]: 2.0 mg/kg
locomotor activity [9]: clear and significant enhancement in locomotor activity
latency to enter the dark side of the apparatus ([3]; 0.5 mg/kg, each animal, rank-ordered, 24 h retention): 65.0 seconds and 110.0 seconds and 153.0 seconds and 207.0 seconds (2×) and 2.0 seconds and 26.0 seconds and 38.0 seconds and 39.0 seconds and 63.0 seconds
latency to enter the dark side of the apparatus ([3]; 1.0 mg/kg, each animal, rank-ordered, 24 h retention): 34.0 s and 35.0 s and 47.0 s and 157.0 s and 263.0 s and 7.0 s and 17.0 s and 19.0 s and 25.0 s and 31.0 s
Inhibitory Avoidance performance, dose experiment ([3]; 2.0 mg/kg one hour before training (Tables 1 and 2)): appeared to enhance performance
IA performance of normal rats ([3]; 2.0 mg/kg, one hour before (FIG. 5), p<0.05 vs all other groups): dramatically enhanced the performance of normal rats
memory for the Inhibitory Avoidance task ([3]; 2.0 mg/kg, replicated experiments (FIG. 6), t(76)=3.416, p<0.001): significantly enhanced memory for the Inhibitory Avoidance task
latency to enter the dark side of the apparatus ([3]; 2.0 mg/kg, each animal, rank-ordered, 24 h retention): 190.0 s and 230.0 s and 245.0 s and 457.0 s and 517.0 s and 33.0 s and 63.0 s and 82.0 s and 84.0 s and 101.0 s
second retention test one week after the first retention test ([3]; no additional training or drug (FIG. 4), p<0.01): performed significantly better than rats that had received control injections of vehicle solution
IA performance of fornix animals compared with normal, saline injected animals ([7]; 2.0 mg/kg (FIG. 5)): not significantly different from normal, saline injected animals
IA performance of fornix lesion rats ([7]; 2.0 mg/kg, one hour before (FIG. 5)): appeared to improve the performance of the fornix lesion rats
